Measurements from publication PMC8020607 (Computational Biology and Chemistry, 2021).

Molecular target: T1, C5a (recombinant human C5a) (Homo sapiens, UniProt P01031)
T1 sequence (P01031 678-751 limits assumed): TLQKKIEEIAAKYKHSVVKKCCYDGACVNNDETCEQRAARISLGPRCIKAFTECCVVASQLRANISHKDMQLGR
Assay: intrinsic tyrosine fluorescence titration, non-linear fit
Assay type: binding

## C[C@]12C=CC(=O)C=C1CC[C@@H]1[C@@H]2C(=O)C[C@@]2(C)[C@H]1CC[C@]2(O)C(=O)CO [prednisone]
  Kd: ~380 nM
